Measured values reported in patent publication US9040502B2, “Anti-XDR-TB drug, anti-MDR-TB drug, and combination anti-tuberculosis drug” (priority 2008, dated 2015).
In brackets after ≈: the same amount, converted by molar mass. Read-outs that look alike come from different tables or passages of the source.

How the values were obtained:
[1] = system: M. tuberculosis XDR (RFP, INH, KM EB, TH, PAS, EVM, LVFX); assay: MIC, agar multiple dilution method (Test Example 2); type: cell-based; settings: Mycobacterium tuberculosis, 336 h
[2] = system: M. tuberculosis MDR (RFP, INH); assay: as above; type: cell-based; settings: Mycobacterium tuberculosis, 336 h
[3] = system: M. tuberculosis XDR-TB (0306-0206); type: in vivo, Mycobacterium tuberculosis in BALB/c mice; settings: BALB/c mice, i.v. infection; s.c., 14 doses; CPZEN-45 6.3-200 mg/kg, SM 25-200 mg/kg; Day 30
[4] = system: M. tuberculosis MDR (RFP, INH, KM, SM EB, TH); assay: MIC, agar multiple dilution method (Test Example 2); type: cell-based; settings: Mycobacterium tuberculosis, 336 h
[5] = system: M. tuberculosis MDR (RFP, INH, KM EB, TH, PAS, EVM); assay: as above; type: cell-based; settings: Mycobacterium tuberculosis, 336 h
[6] = system: Mycobacterium tuberculosis XDR-TB (0306-0206); type: cell-based; settings: Ratio Method

CCCCc1ccc(NC(=O)C2=CCN(C)[C@@H]([C@H](O[C@@H]3O[C@H](CN)[C@@H](O)[C@H]3O)[C@H]3O[C@@H](n4ccc(=O)[nH]c4=O)[C@H](O)[C@@H]3O)C(=O)N2C)cc1 [CPZEN-45, (S)-2-{[(2S,3R,4S,5R)-(5-aminomethyl-3,4-dihydroxyoxolan-2-yl)oxy][(2S,3S,4R,5R)-5-(2,4-dioxo-1,2,3,4-tetrahydropyrimidin-1-yl)-3,4-dihydroxyoxolan-2-yl]-(S)-methyl}-N-(4-butylphenyl)-1,4-dimethyl-3-oxo-1H-1,4-diazepine-5-carboxamide]
MIC [1]: 6.25 µg/mL (≈ 9.07 µM)
MIC [2]: 6.25 µg/mL (≈ 9.07 µM)
Antibacterial effects (number of tuberculosis bacteria in lungs, liver and spleen, FIGS. 3 to 5) [3]: antibacterial effects significantly higher than those of SM
MIC [4]: 6.25 µg/mL (≈ 9.07 µM)
MIC [5]: 6.25 µg/mL (≈ 9.07 µM)

N[C@@H]1CON=C1O [CS, cycloserine]
Determination (drug sensitivity) ([6]; drug concentration 30 μg/mL): S

CC[C@@H](CO)NCCN[C@@H](CC)CO [EB, ethambutol]
Determination (drug sensitivity) ([6]; drug concentration 2.5 μg/mL): R

NNC(=O)c1ccncc1 [INH, isonicotinic acid hydrazide]
Determination (drug sensitivity) ([6]; drug concentration 1.0 μg/mL): R

NC[C@H]1O[C@H](O[C@H]2[C@H](O)[C@@H](O[C@H]3O[C@H](CO)[C@@H](O)[C@H](N)[C@H]3O)[C@H](N)C[C@@H]2N)[C@H](O)[C@@H](O)[C@@H]1O [KM, kanamycin]
Determination (drug sensitivity) ([6]; drug concentration 20 μg/mL): R

C[C@H]1COc2c(N3CCN(C)CC3)c(F)cc3c(=O)c(C(=O)O)cn1c23 [LVFX, levofloxacin]
Determination (drug sensitivity) ([6]; drug concentration 1.0 μg/mL): R

Nc1ccc(C(=O)O)c(O)c1 [PAS, para-amino-salicylic acid]
Determination (drug sensitivity) ([6]; drug concentration 0.5 μg/mL): R

CO[C@H]1/C=C/O[C@@]2(C)Oc3c(C)c(O)c4c(O)c(c(/C=N/N5CCN(C)CC5)c(O)c4c3C2=O)NC(=O)/C(C)=C\C=C\[C@H](C)[C@H](O)[C@@H](C)[C@@H](O)[C@@H](C)[C@H](OC(C)=O)[C@@H]1C [RFP, rifampicin]
Determination (drug sensitivity) ([6]; drug concentration 40 μg/mL): R
MIC [1]: > 40 µg/mL
MIC [2]: > 40 µg/mL
MIC [4]: > 40 µg/mL
MIC [5]: > 40 µg/mL

[H]/N=C(/N)N[C@H]1[C@H](O)[C@@H](O)[C@H](O[C@@H]2O[C@@H](C)[C@](O)(C=O)[C@H]2O[C@@H]2O[C@@H](CO)[C@H](O)[C@@H](O)[C@@H]2NC)[C@@H](N/C(N)=N\[H])[C@@H]1O [SM, streptomycin]
Determination (drug sensitivity) ([6]; drug concentration 10 μg/mL): R
Antibacterial effects (number of tuberculosis bacteria in lungs, liver and spleen, FIGS. 3 to 5) [3]: no antibacterial effects

CCc1cc(C(N)=S)ccn1 [TH, ethionamide]
Determination (drug sensitivity) ([6]; drug concentration 20 μg/mL): R

enviomycin [EVM]
Determination (drug sensitivity) ([6]; drug concentration 20 μg/mL): R
